Measured values as given in patent US12370161B2, “Composition for treating atopy or pruritus comprising N-acetyl or N-acyl amino acid” (STEMDR INC., priority 2017, dated 2025).

Key:
[1] = test system: atopic dermatitis-induced Nc/Nga mouse; test: SCORAD clinical skin score, DNFB-induced atopic dermatitis in Nc/Nga mouse; type: in vivo; design: key to Mouse 1 Erythema / Mouse 2 Eschar / Mouse 2 Dryness / Mouse 2 Abrasion / Mouse 1 Edema / Mouse 1 Eschar / Mouse 1 Dryness / Mouse 1 Abrasion / Mouse 2 Erythema / Mouse 2 Edema / Mouse 3 Erythema / Mouse 3 Edema / Mouse 3 Eschar / Mouse 3 Dryness / Mouse 3 Abrasion: 0 = no symptom, 1 = mild, 2 = moderate, 3 = severe; key to Mouse 1 Sum / Mean (of Sum, SCORAD) / Mouse 3 Sum: sum of individual symptom scores, each graded 0-3; settings: for dermatitis-treating effect of L-, L/D- and D-form (FIG. 6): Nc/Nga atopic dermatitis model, 0.1%; for Mouse 1 Erythema: DNFB Nc/Nga (FIG. 8), 0.1% in PBS, 200 μL on back skin daily day 15-21; for Mouse 1 Erythema / Mouse 1 Abrasion / Mouse 1 Dryness / Mouse 1 Edema / Mouse 1 Eschar / Mouse 1 Lichenification / Mouse 2 Abrasion / Mouse 2 Dryness / Mouse 2 Edema / Mouse 2 Erythema / Mouse 2 Eschar / Mouse 2 Lichenification / Mouse 3 Abrasion / Mouse 3 Dryness / Mouse 3 Edema / Mouse 3 Erythema / Mouse 3 Eschar / Mouse 3 Lichenification: graded per Example 4; for Mouse 1 Abrasion / Mouse 1 Dryness / Mouse 1 Edema / Mouse 1 Eschar / Mouse 1 Lichenification / Mouse 1 Sum / Mouse 2 Abrasion / Mouse 2 Dryness / Mouse 2 Edema / Mouse 2 Erythema / Mouse 2 Eschar / Mouse 2 Lichenification / Mouse 2 Sum / Mouse 3 Abrasion / Mouse 3 Dryness / Mouse 3 Edema / Mouse 3 Erythema / Mouse 3 Eschar / Mouse 3 Lichenification / Mouse 3 Sum / Mean (of Sum, SCORAD): DNFB Nc/Nga, 0.1% topical day 15-21; for Mouse 1 Sum / Mouse 2 Sum / Mouse 3 Sum: sum of individual scores; for Mean (of Sum, SCORAD): mean of 3 mice
Description: In order to establish a model more similar to an atopy model than that of the Balb/c mice, atopy was induced in Nc/Nga mouse mice. Specifically, after inducing DNFB sensitization by applying 100 μL of 0.35% 2,4-dinitrofluorobenzene (DNFB) in acetone/olive oil (3:1) on the shaved back skin, dermatitis was induced by applying 100 μL of 0.15% DNFB for 4-20 days, every other day. Control mice were treated with a vehicle of the same volume (FIG. 1B).
After dissolving an N-acetyl or N-acylamino acid in phosphate-buffered saline to 0.1%, 200 μL of the solution was applied on the back skin of the mice every day, from day 22 until day 28 for the Balb/c atopic dermatitis model, and from day 15 until day 21 for the Nc/Nga atopic dermatitis model. When the N-acetyl or N-acylamino acid was treated together with DNFB, they were treated with 12-hour intervals in order to avoid direct reaction between the DNFB and the N-acetyl or N-acylamino acid. A non-treated group and a 2,4-dinitrofluorobenzene (DNFB) group were treated with phosphate-buffered saline of the same volume (FIGS. 1A-1B). As the N-acetylamino acid, products purchased from Sigma-Aldrich (USA), MP scientific (USA), TCI (Tokyo Chemical Industry, Japan), Santacruz (USA), etc. were used without purification.
The degree of skin soothing and the severity of atopic dermatitis were evaluated macroscopically according to the previously established SCORAD (SCORing Atopic Dermatitis) method (Oranje et al., 2007). The degree of symptoms such as edema, erythema, eschar, dryness, abrasion, lichenification, etc. was graded from 0 to 3 (0, no symptom; 1, mild; 2, moderate; 3, severe). The overall dermatitis score was determined from the sum of all individual scores (Table 1). The assessment was performed by an investigator who was blind to the grouping of the mice.
Skin-soothing effect and the severity of dermatitis were evaluated for the acyl derivatives of tryptophan synthesized in Example 9, the acyl derivative of alanine synthesized in Example 10 and N-palmitoylalanine (purchased from Santacruz (USA)) according to the method of Example 4 (Table 2)

[2] = test system: pruritus caused by atopic contact dermatitis; test: Pruritus inhibition test, pruritus induced with DNFB; type: in vivo, mouse; settings: 0.1% in physiological saline applied once onto right ear; pruritus measured for 1 hour
Description: In order to investigate whether L-form, LID-form and D-form N-acetylalanine, N-acetylarginine, N-acetylthreonine and N-acetyltryptophan inhibit pruritus caused by atopic contact dermatitis, 20 μL of 0.1% 2,4-dinitrofluorobenzene (DNFB) solution and 0.1% N-acetylamino acid dissolved in physiological saline were applied once onto the right ear 10 minutes after the final treatment (day 27) with 2,4-dinitrofluorobenzene (DNFB) (Physiological saline was applied to a negative control group), and then pruritus was measured for 1 hour. FIG. 7 compares the pruritus-relieving effect of L-form N-acetylalanine, N-acetylthreonine, N-acetylarginine and N-acetyltryptophan with D/L-form and D-form N-acetylalanine and N-acetyltryptophan at 0.1% after the induction of pruritus with DNFB.

Structure (SMILES) | Mouse 1 Erythema [1] | Mouse 1 Abrasion [1] | Mouse 1 Dryness [1] | Mouse 1 Edema [1] | Mouse 1 Eschar [1] | Mouse 1 Lichenification [1] | Mouse 1 Sum [1] | Mouse 2 Abrasion [1] | Mouse 2 Dryness [1] | Mouse 2 Edema [1] | Mouse 2 Erythema [1] | Mouse 2 Eschar [1] | Mouse 2 Lichenification [1] | Mouse 2 Sum [1] | Mouse 3 Abrasion [1] | Mouse 3 Dryness [1] | Mouse 3 Edema [1] | Mouse 3 Erythema [1] | Mouse 3 Eschar [1] | Mouse 3 Lichenification [1] | also measured
CC(=O)N[C@@H](C)C(=O)O [D/L-form N-acetylalanine, N-acetylalanine, reference compound] | – | – | – | – | – | – | – | – | – | – | – | – | – | – | – | – | – | – | – | – | dermatitis-treating effect of L-, L/D- and D-form (FIG. 6) ([1]; listed as LID-form N-acetylalanine): no effect; pruritus-relieving effect (FIG. 7) [2]: little effect
CCC(=O)N[C@@H](Cc1c[nH]c2ccccc12)C(=O)O [N-propionyl L-tryptophan, N-propionyl-L-tryptophan] | 2 | 2 | 2 | 2 | 2 | 2 | 12 | 2 | 3 | 2 | 2 | 2 | 2 | 13 | 2 | 1 | 1 | 2 | 2 | 1 | Mouse 3 Sum [1]: 9; Mean (of Sum, SCORAD) [1]: 11.3
CCCCC(=O)N[C@@H](Cc1c[nH]c2ccccc12)C(=O)O [N-pentanoyl L-tryptophan, N-pentanoyl-L-tryptophan] | 2 | 1 | 2 | 2 | 2 | 2 | 11 | 1 | 2 | 2 | 2 | 1 | 2 | 10 | 2 | 1 | 2 | 2 | 2 | 1 | Mouse 3 Sum [1]: 10; Mean (of Sum, SCORAD) [1]: 10.3
CCCCCCCCCCC(=O)N[C@@H](Cc1c[nH]c2ccccc12)C(=O)O [N-undecanoyl L-tryptophan, N-undecanoyl-L-tryptophan] | 1 | 2 | 1 | 2 | 1 | 2 | 9 | 2 | 1 | 1 | 2 | 2 | 2 | 10 | 1 | 1 | 2 | 1 | 2 | 2 | Mouse 3 Sum [1]: 9; Mean (of Sum, SCORAD) [1]: 9.3
CC(=O)N[C@@H](Cc1c[nH]c2ccccc12)C(=O)O [D/L-form N-acetyltryptophan, N-acetyltryptophan, reference compound] | – | – | – | – | – | – | – | – | – | – | – | – | – | – | – | – | – | – | – | – | dermatitis-treating effect of L-, L/D- and D-form (FIG. 6) ([1]; listed as LID-form N-acetyltryptophan): no effect; pruritus-relieving effect (FIG. 7) [2]: little effect
CCCCCCCCCCCCCCCCCC(=O)N[C@@H](Cc1c[nH]c2ccccc12)C(=O)O [N-stearyl-L-tryptophan, N-stearoyl-L-tryptophan] | 2 | 2 | 2 | 2 | 2 | 2 | 12 | 2 | 2 | 2 | 2 | 1 | 1 | 10 | 2 | 1 | 2 | 2 | 2 | 2 | Mouse 3 Sum [1]: 11; Mean (of Sum, SCORAD) [1]: 11
CCCCCCCCCCCCCCCC(=O)N[C@@H](Cc1c[nH]c2ccccc12)C(=O)O [N-palmitoyl-L-tryptophan] | 1 | 1 | 1 | 2 | 1 | 2 | 6 | 2 | 2 | 1 | 2 | 2 | 1 | 10 | 1 | 2 | 2 | 2 | 1 | 2 | Mouse 3 Sum [1]: 10; Mean (of Sum, SCORAD) [1]: 8.7
CC(=O)N[C@@H](Cc1c[nH]c2ccccc12)C(=O)O [D-form N-acetyltryptophan, N-acetyltryptophan, reference compound] | – | – | – | – | – | – | – | – | – | – | – | – | – | – | – | – | – | – | – | – | dermatitis-treating effect of L-, L/D- and D-form (FIG. 6) [1]: no effect
CCCCCCCCCCCCCCCC(=O)N[C@@H](C)C(=O)O [N-palmitoyl L-alanine, N-palmitoyl-L-alanine] | 1 | 1 | 1 | 2 | 1 | 1 | 7 | 1 | 1 | 1 | 2 | 1 | 1 | 7 | 2 | 2 | 1 | 2 | 1 | 1 | Mouse 3 Sum [1]: 9; Mean (of Sum, SCORAD) [1]: 6.7
